Experimental findings from US9839642B2, “Beta-tetrazolyl-propionic acids as metallo-beta-lactamase inhibitors” (priority 2014, dated 2017) are described below.

The IC50 is the point on the concentration scale where inhibition reaches its midpoint.

Some results are limits rather than exact numbers.

One test has as its target IMP-1 (Serratia marcescens, UniProt P52699). Description: Enzyme activity: determination of IC50, fluorescence assay with CCF2-FA substrate. The test is classed as biochemical. Conditions: enzyme 2 pM, CCF2-FA 1.25 μM, 2 hours at 25° C.; read-out: IMP1 IC50. The gist of the method: (§1)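 In pH 7 phosphate buffer (100 mM) with 10 μM ZnSO4 and 0.005% Tween-20, CCF2-FA substrate (1.25 μM final) was hydrolysed for 2 h at 25 °C by NDM-1, IMP-1 or VIM-1 at 1, 2 or 30 pM in the presence of inhibitor at 20–0.00063 μM. Emission 460 nm/excitation 405 nm; 4-parameter curve fit gave IC50.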

The target in the next test is NDM-1 (Klebsiella pneumoniae, UniProt C7C422). The description is as above. It is filed as biochemical. Conditions: enzyme 1 pM, CCF2-FA 1.25 μM, 2 hours at 25° C.; read-out: NDM1 IC50. In a few lines: as §1
Chain of NDM-1 (C7C422 29-270, looked up, species assumed): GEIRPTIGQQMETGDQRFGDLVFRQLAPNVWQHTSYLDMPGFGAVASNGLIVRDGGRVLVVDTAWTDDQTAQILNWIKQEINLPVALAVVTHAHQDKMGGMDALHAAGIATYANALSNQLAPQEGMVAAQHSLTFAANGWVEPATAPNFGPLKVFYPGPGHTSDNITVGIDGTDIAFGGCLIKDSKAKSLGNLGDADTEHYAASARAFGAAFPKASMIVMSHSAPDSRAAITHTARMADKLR
Another test concerns the target VIM-1 (Pseudomonas aeruginosa, UniProt A0A0F7KYQ8). The description is as above. The test is classed as biochemical. Conditions: enzyme 30 pM, CCF2-FA 1.25 μM, 2 hours at 25° C.; read-out: VIM1 IC50. In a few lines: as §1
Test [1] has as its system Escherichia coli expressing NDM-1 (CLB30016). Nature of the test: Antibiotic potentiation activity: synergistic concentration (MITC95) with imipenem, growth by OD600. Conditions: 95% inhibition of bacterial growth, strain CLB30016. It is filed as cell-based. The gist of the method: (§2)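 MITC95 = lowest inhibitor concentration giving 95% growth inhibition, read by absorbance after 22–24 h at 35° C. Compound range 200 μM to 0.195 μM, imipenem fixed at 1 or 4 μg/ml, bacteria in 1.1×CAMHB from saline suspension diluted 1:100.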

In test [2] the test system is Klebsiella pneumoniae expressing VIM-1 (IHMA599644). Described as above. Conditions: 95% inhibition of bacterial growth, strain IHMA599644. The test is classed as cell-based. In a few lines: as §2
In test [3] the test system is Serratia marcescens expressing IMP-1 (CL5741). Described as above. It is filed as cell-based. Conditions: 95% inhibition of bacterial growth, strain CL5741. The gist of the method:
as §2

Chain of IMP-1 (P52699 19-246, looked up, species assumed): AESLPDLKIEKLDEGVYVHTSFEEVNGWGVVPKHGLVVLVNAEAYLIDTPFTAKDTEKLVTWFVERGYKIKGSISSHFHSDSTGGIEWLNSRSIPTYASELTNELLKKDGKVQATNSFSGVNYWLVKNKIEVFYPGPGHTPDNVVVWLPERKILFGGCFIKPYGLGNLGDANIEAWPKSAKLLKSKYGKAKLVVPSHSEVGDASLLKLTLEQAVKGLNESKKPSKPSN

As for `CCC[C@H](C(=O)O)[C@H](Cc1ccc(Oc2ccc(CN)cc2)nc1)c1nnn[nH]1` [Example 131, (S)-2-((S)-2-(6-(4-(aminomethyl)phenoxy)pyridin-3-yl)-1-(1H-tetrazol-5-yl)ethyl)pentanoic acid], the results for the IC50 at IMP-1, at NDM-1 and on VIM-1 were 200 nM, 12 nM and 1.9 nM, respectively. In addition, the “NDM1 EC30016 MITC95” value in test [1] turned out to be 0.78 µM. The “VIM1 KP599644 MITC95” value in test [2] turned out to be 9.4 µM. In addition, the “IMP1 SM5741 MITC95” value in test [3] was 6.2 µM.
As to `CCC[C@H](C(=O)O)[C@H](Cc1ccc(NCc2ccc(O)cc2)nc1)c1nnn[nH]1` [Example 132, (S)-2-((S)-2-(6-((4-hydroxybenzyl)amino)pyridin-3-yl)-1-(1H-tetrazol-5-yl)ethyl)pentanoic acid], the IC50 on IMP-1 came to 1500 nM; on NDM-1, 160 nM; on VIM-1, 31 nM. The “NDM1 EC30016 MITC95” value in test [1] was found to be 9.4 µM. In addition, in test [2], the “VIM1 KP599644 MITC95” value is 25 µM. For the same molecule, the “IMP1 SM5741 MITC95” value in test [3] was found to be 38 µM.
Regarding `CC(C)C[C@H](C(=O)O)[C@H](Cc1ccc2cc(NCCO)cnc2c1)c1nnn[nH]1` [Example 133, (S)-2-((S)-2-(3-((2-hydroxyethyl)amino)quinolin-7-yl)-1-(1H-tetrazol-5-yl)ethyl)-4-methylpentanoic acid], the IC50 on IMP-1 was found to be 79 nM; at NDM-1, 12 nM; at VIM-1 it was 1.6 nM. Besides, the “NDM1 EC30016 MITC95” value in test [1] was determined as 25 µM. In addition, the “VIM1 KP599644 MITC95” value in test [2] turned out to be 75 µM. Besides, the “IMP1 SM5741 MITC95” value in test [3] came out at 6.2 µM.
Regarding `CC(C)C[C@H](C(=O)O)[C@H](Cc1ccc(NCCO)nc1)c1nnn[nH]1` [Example 134, (S)-2-((S)-2-(6-((2-hydroxyethyl)amino)pyridin-3-yl)-1-(1H-tetrazol-5-yl)ethyl)-4-methylpentanoic acid], the values for the IC50 at IMP-1, at NDM-1 and at VIM-1 were 230 nM, 88 nM and 6.6 nM, respectively. In addition, the “NDM1 EC30016 MITC95” value in test [1] turned out to be 0.78 µM. Further, the “VIM1 KP599644 MITC95” value in test [2] is 18.8 µM. In test [3], the “IMP1 SM5741 MITC95” value was 4.7 µM.
Regarding `CC(C)C[C@H](C(=O)O)[C@H](Cc1ccc(OCCN)nc1)c1nnn[nH]1` [Example 135, (S)-2-((S)-2-(6-(2-aminoethoxy)pyridin-3-yl)-1-(1H-tetrazol-5-yl)ethyl)-4-methylpentanoic acid], the figures for the IC50 at IMP-1, at NDM-1 and at VIM-1 were 1600 nM, 490 nM and 6.1 nM, respectively. Moreover, in test [1], the “NDM1 EC30016 MITC95” value was determined as 6.2 µM. The “VIM1 KP599644 MITC95” value in test [2] is 25 µM. Moreover, in test [3], the “IMP1 SM5741 MITC95” value came out at 25 µM.
As to `CCC[C@H](C(=O)O)[C@H](Cc1ccc(NCCO)cn1)c1nnn[nH]1` [Example 136, (S)-2-((S)-2-(5-((2-hydroxyethyl)amino)pyridin-2-yl)-1-(1H-tetrazol-5-yl)ethyl)pentanoic acid], the IC50 on IMP-1 came out at 6800 nM; at NDM-1, 340 nM; at VIM-1, 150 nM. Besides, the “NDM1 EC30016 MITC95” value in test [1] was 1.2 µM. Further, in test [2], the “VIM1 KP599644 MITC95” value is 18.8 µM. Moreover, in test [3], the “IMP1 SM5741 MITC95” value is 100 µM.
In the case of `CC(C)C[C@H](C(=O)O)[C@H](Cc1cnc(NCCO)s1)c1nnn[nH]1` [Example 137, (S)-2-((S)-2-(2-((2-hydroxyethyl)amino)thiazol-5-yl)-1-(1H-tetrazol-5-yl)ethyl)-4-methylpentanoic acid], the IC50 at IMP-1 worked out at 300 nM; at NDM-1, 110 nM; on VIM-1, 3.5 nM. Also, the “NDM1 EC30016 MITC95” value in test [1] was found to be 6.2 µM. For the same molecule, in test [2], the “VIM1 KP599644 MITC95” value stood at 37 µM. The “IMP1 SM5741 MITC95” value in test [3] was 12.5 µM.
For `CC(C)[C@H](C(=O)O)[C@H](Cc1cccc(NCCO)n1)c1nnn[nH]1` [Example 138, (2S,3S)-4-(6-((2-hydroxyethyl)amino)pyridin-2-yl)-2-isopropyl-3-(1H-tetrazol-5-yl)butanoic acid], the IC50 at IMP-1 is > 20000 nM; on NDM-1 it was 490 nM; on VIM-1, 670 nM. In addition, the “NDM1 EC30016 MITC95” value in test [1] was determined as 3.1 µM. The “VIM1 KP599644 MITC95” value in test [2] was 75 µM. Also, the “IMP1 SM5741 MITC95” value in test [3] is >200 µM.
As for `CC(C)[C@H](C(=O)O)[C@H](Cc1ccc(NCCO)cn1)c1nnn[nH]1` [Example 139, (2S,3S)-4-(5-((2-hydroxyethyl)amino)pyridin-2-yl)-2-isopropyl-3-(1H-tetrazol-5-yl)butanoic acid], the values for the IC50 on IMP-1, at NDM-1 and on VIM-1 were 1900 nM, 56 nM and 34 nM, respectively. The “NDM1 EC30016 MITC95” value in test [1] came out at 0.39 µM. Moreover, the “VIM1 KP599644 MITC95” value in test [2] was 12.5 µM. Moreover, the “IMP1 SM5741 MITC95” value in test [3] stood at 38 µM.
With `CC(C)[C@H](C(=O)O)[C@H](Cc1ccc(NCCN)nc1)c1nnn[nH]1` [Example 140, (2S,3S)-4-(6-((2-aminoethyl)amino)pyridin-3-yl)-2-isopropyl-3-(1H-tetrazol-5-yl)butanoic acid], the figures for the IC50 at IMP-1, at NDM-1 and at VIM-1 were > 20000 nM, 320 nM and 8.7 nM, respectively. The “NDM1 EC30016 MITC95” value in test [1] turned out to be 1.6 µM. In addition, in test [2], the “VIM1 KP599644 MITC95” value was found to be 12.5 µM. In test [3], the “IMP1 SM5741 MITC95” value was determined as 75 µM.
Consider `CC(C)[C@H](C(=O)O)[C@H](Cc1ccc(NC(CO)CO)nc1)c1nnn[nH]1` [Example 141, (2S,3S)-4-(6-((1,3-dihydroxypropan-2-yl)amino)pyridin-3-yl)-2-isopropyl-3-(1H-tetrazol-5-yl)butanoic acid], for which the values for the IC50 at IMP-1, on NDM-1 and at VIM-1 were > 20000 nM, 3600 nM and 800 nM, respectively. Moreover, the “NDM1 EC30016 MITC95” value in test [1] came to 12.5 µM. Also, in test [2], the “VIM1 KP599644 MITC95” value came out at 150 µM. In addition, in test [3], the “IMP1 SM5741 MITC95” value is >200 µM.
As to `CC(C)[C@H](C(=O)O)[C@H](Cc1ccc(OCC(N)CO)nc1)c1nnn[nH]1` (stereo partly drawn) [Example 142, (2S,3S)-4-(6-(2-amino-3-hydroxypropoxy)pyridin-3-yl)-2-isopropyl-3-(1H-tetrazol-5-yl)butanoic acid], the IC50 came out at 5000 nM on IMP-1, 340 nM at NDM-1 and 130 nM at VIM-1. Further, the “NDM1 EC30016 MITC95” value in test [1] came to 3.1 µM. Besides, the “VIM1 KP599644 MITC95” value in test [2] was 25 µM. Further, the “IMP1 SM5741 MITC95” value in test [3] was found to be 50 µM.
`CCC[C@H](C(=O)O)[C@H](Cc1ccc(NCc2cc(OC)cc(OC)c2)nc1)c1nnn[nH]1` [Example 144, (S)-2-((S)-2-(6-((3,5-dimethoxybenzyl)amino)pyridin-3-yl)-1-(1H-tetrazol-5-yl)ethyl)pentanoic acid]: the IC50 on IMP-1 came to 370 nM; at NDM-1 it was 16 nM; on VIM-1, 15 nM. Further, in test [1], the “NDM1 EC30016 MITC95” value was 7.8 µM. Also, the “VIM1 KP599644 MITC95” value in test [2] is 200 µM. Also, the “IMP1 SM5741 MITC95” value in test [3] was determined as 62 µM.
Turning to `CC(C)C[C@H](C(=O)O)[C@H](Cc1ccc(N2CCNCC2)c(F)c1)c1nn[nH]n1` [Example 146, (S)-2-((S)-2-(3-fluoro-4-(piperazin-1-yl)phenyl)-1-(2H-tetrazol-5-yl)ethyl)-4-methylpentanoic acid], the IC50 on IMP-1 was determined as 100 nM; on NDM-1, 36 nM; on VIM-1, 1.6 nM. Moreover, the “NDM1 EC30016 MITC95” value in test [1] amounted to 6.2 µM. In addition, in test [2], the “VIM1 KP599644 MITC95” value came out at 15.6 µM. The “IMP1 SM5741 MITC95” value in test [3] amounted to 5.5 µM.
In the case of `CCC[C@H](C(=O)O)[C@H](Cc1ccc2ccc(N)nc2c1)c1nnn[nH]1` [Example 147, (S)-2-((S)-2-(2-aminoquinolin-7-yl)-1-(1H-tetrazol-5-yl)ethyl)pentanoic acid], the values for the IC50 at IMP-1, at NDM-1 and on VIM-1 were 4500 nM, 110 nM and 0.85 nM, respectively. Besides, the “NDM1 EC30016 MITC95” value in test [1] was found to be 3.1 µM. The “VIM1 KP599644 MITC95” value in test [2] was determined as 6.2 µM. Moreover, in test [3], the “IMP1 SM5741 MITC95” value was 100 µM.
Consider `CCC[C@H](C(=O)O)[C@H](Cc1ccc2ncc(N)cc2c1)c1nnn[nH]1` [Example 148, 3-amino-6-((2S,3S)-3-carboxy-2-(1H-tetrazol-5-yl)hexyl)quinolin-1-ium], for which the IC50 on IMP-1 is 400 nM; on NDM-1, 25 nM; at VIM-1, 0.94 nM. In test [1], the “NDM1 EC30016 MITC95” value came to 25 µM. Besides, the “VIM1 KP599644 MITC95” value in test [2] was 25 µM. Also, the “IMP1 SM5741 MITC95” value in test [3] amounted to 12.5 µM.
Turning to `CCC[C@H](C(=O)O)[C@H](Cc1ccc(NCCS(N)(=O)=O)cn1)c1nnn[nH]1` [Example 149, 2-((2S,3S)-3-carboxy-2-(1H-tetrazol-5-yl)hexyl)-5-((2-sulfamoylethyl)amino)pyridin-1-ium], the IC50 on IMP-1 was 1600 nM; at NDM-1, 170 nM; at VIM-1, 98 nM. For the same molecule, in test [1], the “NDM1 EC30016 MITC95” value was found to be 0.39 µM. Moreover, in test [2], the “VIM1 KP599644 MITC95” value was 18.8 µM. The “IMP1 SM5741 MITC95” value in test [3] was 38 µM.
